Patent publication US6255088A, “Enzymatic sulfation of biomolecules” (The Scripps Research Institute, priority 1999, dated 2001)
Read-outs that look alike come from different tables or passages of the source.

What was measured:
NodST [1] = target: T1, NodST (Sinorhizobium meliloti, UniProt P06236); conditions: non-coupled radioisotope thin-layer chromatography assay, 100 μM PAPS; read-out: published Km of acceptor for NodST; cited from earlier work
T1 sequence (P06236 1-247): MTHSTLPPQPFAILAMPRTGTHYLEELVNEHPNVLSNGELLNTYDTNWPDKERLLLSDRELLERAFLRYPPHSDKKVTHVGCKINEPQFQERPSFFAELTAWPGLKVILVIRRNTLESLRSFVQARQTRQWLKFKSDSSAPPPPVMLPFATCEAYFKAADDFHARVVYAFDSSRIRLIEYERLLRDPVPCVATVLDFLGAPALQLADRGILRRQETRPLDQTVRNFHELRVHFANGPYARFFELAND

NodST [2] = target: T1, NodST; assay: Continuous spectrophotometric coupled-enzyme assay of NodST with βAST-IV PAPS regeneration; assay type: biochemical, Rhizobium melioti
Protocol: 100 mM bis-tris propane-HCl, pH 7.0, 5 mM 2-mercaptoethanol, 20 μM PAPS, 2 mM p-nitrophenyl sulfate, 3.0 mU NodST, 6.4 mU β-AST IV, and substrate are combined to a total volume of 500 μL. Because commercial PAPS contains significant amounts of PAP, the assay solution is incubated for 30 minutes at 20° C. prior to addition of substrate. The evolution of p-nitrophenol is monitored at 400 nm for 10 minutes.
All reactions were run in a total volume of 500 μL at 25° C. […] The amount of NodST added to each series of acceptor concentrations is varied over 1.2, 1.8, 3.0, and 4.2 mU. Because commercial PAPS contains significant amounts of PAP, the assay solution is incubated for 30 minutes at 20° C. prior to addition of substrate. The evolution of p-nitrophenol is monitored at 400 nm for 10 minutes.
3.0 mU of NodST was used in each reaction. The Km for each series of PAP concentrations was calculated and the values were compared.

NodST [3] = target: T1, NodST; conditions: read-out: Km of NodST for PAPS; preliminary study
Protocol: To ensure that our coupled assay provides a steady-state PAPS concentration that is much greater than the Km of NodST, the Km experiments above were conducted with varying concentrations of PAPS to verify PAPS saturation. […] A previously published study using a radioisotopic thin-layer chromatography method to determine kinetic values of NodST maintained 100 μM PAPS concentration for all assays. Given that AST-IV maintains a constant concentration of PAPS through recycling, it is disclosed that 20 μM PAPS reaction concentration is sufficient for saturation conditions to maintain steady-state.

[4] = aqueous solution at pH 8.0; cited from earlier work
NodST [5] = target: T1, NodST; conditions: Lin et al. 1995; read-out: Ki, PAP inhibition of NodST; cited from earlier work
[6] = tested on: hydroxysteroid sulfotransferase; conditions: Marcus et al. 1980, cited from earlier work
βAST-IV = target: T2, βAST-IV (Rattus norvegicus, UniProt P17988); assay: Reverse-physiological reaction of βAST-IV (PAPS from PAP and p-nitrophenyl sulfate); assay type: biochemical; conditions: 10 mM p-nitrophenyl sulfate, pH 7.0, 25° C.
T2 construct: made in house; host or cells: E. coli BL21(DE3)
Protocol: All capillary zone electrophoresis (CZE) was run in 0.23 M borate in running buffer at pH 7.8. The column was pre-washed with H2 O (1 min), 1 N NaOH (1 min), and running buffer (2 min). The sample was pressure injected at 20 psi sec and electrophoresis was run with 20.0 kV (- to +) at 20° C. with detection at 260 nm. CZE of 1 mM standards PAPS, PAP, and 3'-adenosine monophosphate (3'-AMP) were run to determine retention times. The reverse-physiological reaction assay mixture, a 500 μL solution containing 50 mM bis-tris propane-HCl buffer at pH 7.0, 1 mM 2-mercaptoethanol, 10 mM p-nitrophenyl sulfate, and 1 mM PAP at 25° C., was subjected to CZE prior to addition of enzyme (t=0). 5 mU βAST-IV was added and CZE was repeated 30 minutes after initiation. The reaction was then diluted 100-fold and CZE was run again. A 2.0 μL internal standard of 10 mM PAPS was added, and CZE was repeated.
βAST-IV activity in the reverse-physiological reaction was determined at 25° C. with a total volume of 500 μL. The reverse-physiological assay above was used with varying PAP concentration (15.6, 31.3, 62.5, 125, 250, 500 μM). Measurement of initial velocity was conducted over 10 seconds at 400 nm, and an extinction coefficient of 1064 was used to calculate p-nitrophenol concentration at pH 7.0. […]

T2 sequence (P17988 whole entry): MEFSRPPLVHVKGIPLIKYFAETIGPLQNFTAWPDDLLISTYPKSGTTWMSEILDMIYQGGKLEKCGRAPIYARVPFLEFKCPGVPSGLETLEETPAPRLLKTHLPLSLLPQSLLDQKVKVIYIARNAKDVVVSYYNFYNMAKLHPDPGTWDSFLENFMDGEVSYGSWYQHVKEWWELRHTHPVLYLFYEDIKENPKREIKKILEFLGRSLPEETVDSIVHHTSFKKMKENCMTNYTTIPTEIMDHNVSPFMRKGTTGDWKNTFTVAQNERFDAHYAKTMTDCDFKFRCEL

CC(=O)N[C@H]1[C@H](O[C@H]2[C@H](O)[C@@H](NC(C)=O)C(O)O[C@@H]2CO)O[C@H](CO)[C@@H](O[C@@H]2O[C@H](CO)[C@@H](O[C@@H]3O[C@H](CO)[C@@H](O)[C@H](O)[C@H]3NC(C)=O)[C@H](O)[C@H]2NC(C)=O)[C@@H]1O (stereo partly drawn) [N,N',N",N'"-tetraacetylchitotetraose]
Km (NodST [1]): 140 µM | kcat of acceptor with NodST (NodST [2]; apparent value, coupled assay, 20 μM PAPS, pH 7.0): 19.7 min⁻¹ | acceptor specificity for NodST, ranking among substrates (NodST [2]; coupled assay, among N-acetyl chitoses, LacNAc and LacNAc dimer): best substrate

CC(=O)N[C@H]1[C@H](O[C@H]2[C@H](O)[C@@H](NC(C)=O)C(O)O[C@@H]2CO)O[C@H](CO)[C@@H](O[C@@H]2O[C@H](CO)[C@@H](O)[C@H](O)[C@H]2NC(C)=O)[C@@H]1O (stereo partly drawn) [N,N',N"-triacetylchitotriose]
kcat of acceptor with NodST, PAPS concentration study (NodST [2]; 20, 40 and 100 μM PAPS, all three within 10% variation, 3.0 mU NodST): ~23.6 s⁻¹

Nc1ncnc2c1ncn2[C@@H]1O[C@H](COP(=O)(O)OS(=O)(=O)O)[C@@H](OP(=O)(O)O)[C@H]1O [PAPS, 3'-phosphoadenosine-5'-phosphosulfate]
Km (NodST [3]): < 100 nM | half-life of PAPS in aqueous solution [4]: approximately 20 hours

CC(=O)N[C@H]1[C@H](O[C@H]2[C@H](O)[C@@H](NC(C)=O)[C@H](O[C@H]3[C@H](O)[C@@H](NC(C)=O)C(O)O[C@@H]3CO)O[C@@H]2CO)O[C@H](CO)[C@@H](O[C@@H]2O[C@H](CO)[C@@H](O[C@@H]3O[C@H](CO)[C@@H](O)[C@H](O)[C@H]3NC(C)=O)[C@H](O)[C@H]2NC(C)=O)[C@@H]1O (stereo partly drawn) [N,N',N",N'",N""-pentaacetylchito-pentaose]
Km (NodST [1]): 190 µM

Nc1ncnc2c1ncn2[C@@H]1O[C@H](COP(=O)(O)O)[C@@H](OP(=O)(O)O)[C@H]1O [PAP, adenosine 3',5'-diphosphate]
Ki (NodST [5]): 100 nM | enzyme product inhibition of sulfotransferases [6]: low-micromolar levels | Ki ([6]; read-out: Ki, PAP inhibition of hydroxysteroid sulfotransferase): 14 µM | Vmax of βAST-IV as a function of PAP concentration (βAST-IV): 6.04 ± 0.24 µmol/min

CC(=O)N[C@H]1[C@H](O[C@H]2[C@@H](O)[C@@H](CO)O[C@@H](O[C@H]3[C@H](O)[C@@H](NC(C)=O)C(O)O[C@@H]3CO)[C@@H]2O)O[C@H](CO)[C@@H](O[C@@H]2O[C@H](CO)[C@H](O)[C@H](O)[C@H]2O)[C@@H]1O (stereo partly drawn) [LacNAc dimer, Galβ(1,4)GlcNAcβ(1,3) Galβ(1,4)GlcNAc]
increase in acceptor specificity from LacNAc to the LacNAc dimer (NodST [2]; NodST, coupled assay): sixty-fold increase
